Test results as given in the NIST ThermoML archive (doi:10.1016/j.jct.2014.06.004).

Key:
[1] = refractive index (Na D-line) (dimensionless); xn = mol fraction of the nth substance listed; settings: 100 kPa, Liquid, Standard Abbe refractometry
[2] = xn = mol fraction of the nth substance listed; settings: 100 kPa, Liquid; for speed of sound: Frequency=3 MHz, Sing-around technique in a fixed-path interferometer; for mass density: Vibrating tube method

CCCCCCC(=O)O [heptanoic acid] + CCCC(=O)O
Settings	mass density, [2] [kg/m3]	refractive index, [1]	speed of sound, [2] [m/s]
293.15 K, x1 = 0.0559	954.2	1.4005	1203
293.15 K, x1 = 0.1059	951.3	1.4024	1209
293.15 K, x1 = 0.2061	945.8	1.4054	1222
293.15 K, x1 = 0.3087	940.8	1.4084	1233
293.15 K, x1 = 0.4037	936.7	1.4109	1244
293.15 K, x1 = 0.5037	932.7	1.4134	1254
293.15 K, x1 = 0.6006	929.2	1.4157	1263
293.15 K, x1 = 0.7049	925.8	1.4179	1272
293.15 K, x1 = 0.805	922.8	1.4199	1280
293.15 K, x1 = 0.9052	920.1	1.4217	1289
293.15 K, x1 = 0.9575	918.7	1.4226	1292
293.15 K, x1 = 1	917.7	1.4234	1295
298.15 K, x1 = 0.0559	949.3	1.3984	1185
298.15 K, x1 = 0.1059	946.4	1.4001	1191
298.15 K, x1 = 0.2061	941	1.4033	1203
298.15 K, x1 = 0.3087	936.2	1.4063	1215
298.15 K, x1 = 0.4037	932.1	1.4089	1225
298.15 K, x1 = 0.5037	928.2	1.4114	1236
298.15 K, x1 = 0.6006	924.8	1.4136	1245
298.15 K, x1 = 0.7049	921.5	1.4159	1254
298.15 K, x1 = 0.805	918.5	1.4179	1263
298.15 K, x1 = 0.9052	915.9	1.4197	1271
298.15 K, x1 = 0.9575	914.5	1.4207	1275
298.15 K, x1 = 1	913.5	1.4214	1278
303.15 K, x1 = 0.0559	944.4	1.3963	1166
303.15 K, x1 = 0.1059	941.6	1.398	1172
303.15 K, x1 = 0.2061	936.3	1.4012	1185
303.15 K, x1 = 0.3087	931.5	1.4042	1197
303.15 K, x1 = 0.4037	927.6	1.4068	1207
303.15 K, x1 = 0.5037	923.8	1.4093	1217
303.15 K, x1 = 0.6006	920.4	1.4116	1227
303.15 K, x1 = 0.7049	917.1	1.4138	1236
303.15 K, x1 = 0.805	914.2	1.4158	1245
303.15 K, x1 = 0.9052	911.6	1.4177	1253
303.15 K, x1 = 0.9575	910.3	1.4186	1257
303.15 K, x1 = 1	909.3	1.4194	1260
308.15 K, x1 = 0.0559	939.5	1.3942	1147
308.15 K, x1 = 0.1059	936.7	1.3958	1154
308.15 K, x1 = 0.2061	931.5	1.3991	1167
308.15 K, x1 = 0.3087	926.9	1.4021	1179
308.15 K, x1 = 0.4037	923	1.4047	1189
308.15 K, x1 = 0.5037	919.3	1.4072	1199
308.15 K, x1 = 0.6006	916	1.4095	1209
308.15 K, x1 = 0.7049	912.8	1.4117	1218
308.15 K, x1 = 0.805	910	1.4138	1227
308.15 K, x1 = 0.9052	907.4	1.4157	1235
308.15 K, x1 = 0.9575	906.1	1.4166	1239
308.15 K, x1 = 1	905.1	1.4173	1242
313.15 K, x1 = 0.0559	934.6	1.392	1129
313.15 K, x1 = 0.1059	931.9	1.3937	1136
313.15 K, x1 = 0.2061	926.8	1.397	1148
313.15 K, x1 = 0.3087	922.3	1.4	1161
313.15 K, x1 = 0.4037	918.5	1.4026	1171
313.15 K, x1 = 0.5037	914.8	1.4051	1182
313.15 K, x1 = 0.6006	911.6	1.4074	1191
313.15 K, x1 = 0.7049	908.4	1.4097	1201
313.15 K, x1 = 0.805	905.7	1.4117	1209
313.15 K, x1 = 0.9052	903.1	1.4136	1218
313.15 K, x1 = 0.9575	901.9	1.4146	1222
313.15 K, x1 = 1	900.9	1.4153	1225

CCCCCCC(=O)O [heptanoic acid] + CCC(=O)O
Settings	mass density, [2] [kg/m3]	refractive index, [1]	speed of sound, [2] [m/s]
293.15 K, x1 = 0.0539	985.8	1.39	1176
293.15 K, x1 = 0.1023	979.3	1.3929	1185
293.15 K, x1 = 0.2037	967.5	1.3982	1202
293.15 K, x1 = 0.3021	957.8	1.4026	1217
293.15 K, x1 = 0.4007	949.6	1.4066	1231
293.15 K, x1 = 0.5015	942.3	1.4102	1244
293.15 K, x1 = 0.6051	935.9	1.4135	1257
293.15 K, x1 = 0.7009	930.7	1.4162	1267
293.15 K, x1 = 0.8016	925.8	1.4188	1277
293.15 K, x1 = 0.9002	921.5	1.4212	1287
293.15 K, x1 = 0.95	919.5	1.4223	1291
293.15 K, x1 = 1	917.7	1.4234	1295
298.15 K, x1 = 0.0539	980.5	1.388	1158
298.15 K, x1 = 0.1023	974.2	1.3909	1166
298.15 K, x1 = 0.2037	962.5	1.3961	1184
298.15 K, x1 = 0.3021	953	1.4006	1199
298.15 K, x1 = 0.4007	944.9	1.4045	1213
298.15 K, x1 = 0.5015	937.7	1.4081	1226
298.15 K, x1 = 0.6051	931.1	1.4114	1239
298.15 K, x1 = 0.7009	926.3	1.4142	1249
298.15 K, x1 = 0.8016	921.4	1.4169	1260
298.15 K, x1 = 0.9002	917.2	1.4192	1269
298.15 K, x1 = 0.95	915.3	1.4203	1273
298.15 K, x1 = 1	913.5	1.4214	1278
303.15 K, x1 = 0.0539	975.2	1.3859	1139
303.15 K, x1 = 0.1023	969	1.3888	1148
303.15 K, x1 = 0.2037	957.5	1.394	1165
303.15 K, x1 = 0.3021	948.1	1.3985	1180
303.15 K, x1 = 0.4007	940.2	1.4024	1195
303.15 K, x1 = 0.5015	933.2	1.406	1208
303.15 K, x1 = 0.6051	926.9	1.4094	1220
303.15 K, x1 = 0.7009	921.9	1.4121	1231
303.15 K, x1 = 0.8016	917.1	1.4148	1242
303.15 K, x1 = 0.9002	913	1.4171	1251
303.15 K, x1 = 0.95	911.1	1.4183	1256
303.15 K, x1 = 1	909.3	1.4194	1260
308.15 K, x1 = 0.0539	970	1.3838	1120
308.15 K, x1 = 0.1023	963.8	1.3866	1129
308.15 K, x1 = 0.2037	952.5	1.3919	1146
308.15 K, x1 = 0.3021	943.3	1.3963	1162
308.15 K, x1 = 0.4007	935.5	1.4003	1176
308.15 K, x1 = 0.5015	928.6	1.4039	1190
308.15 K, x1 = 0.6051	922.4	1.4073	1202
308.15 K, x1 = 0.7009	917.5	1.4101	1213
308.15 K, x1 = 0.8016	912.8	1.4127	1224
308.15 K, x1 = 0.9002	908.8	1.4151	1233
308.15 K, x1 = 0.95	906.9	1.4162	1238
308.15 K, x1 = 1	905.1	1.4173	1242
313.15 K, x1 = 0.0539	964.7	1.3816	1101
313.15 K, x1 = 0.1023	958.6	1.3845	1110
313.15 K, x1 = 0.2037	947.5	1.3897	1128
313.15 K, x1 = 0.3021	938.4	1.3942	1144
313.15 K, x1 = 0.4007	930.8	1.3982	1158
313.15 K, x1 = 0.5015	924	1.4018	1172
313.15 K, x1 = 0.6051	918	1.4052	1185
313.15 K, x1 = 0.7009	913.1	1.408	1196
313.15 K, x1 = 0.8016	908.5	1.4107	1206
313.15 K, x1 = 0.9002	904.5	1.4131	1216
313.15 K, x1 = 0.95	902.7	1.4142	1220
313.15 K, x1 = 1	900.9	1.4153	1225
